Experimental data: patent publication US20110015226A1, “Treatment of Energy Utilization Disease” (SUMMIT CORPORATION PLC, priority 2008, published 2011)
Like-named read-outs stand apart in the source and are kept apart here.

Legend:
Assay type in all cases: biochemical
α-D-glucosidase (Yeast) = target: T1, α-D-glucosidase (Yeast) (Saccharomyces cerevisiae, UniProt P53341); assay: Glycosidase inhibition: α-D-glucosidase (Yeast); conditions: compounds tested at 0.8 mM
T1 construct: purchased Sigma
Description: (§1) The results tabulated below were obtained using commercially available glycosidases and p-nitrophenyl-substrates using standard methods described for example by Watson et al (1997) Phytochemistry 46 255-259. All enzymes and substrates were bought from Sigma. Enzyme and substrate solutions were made using sodium phosphate buffers at the pH optima values. The enzymes used were α-D-glucosidase Saccharomyces cerevisiae, Bacillus stearothermophilus, Oryzae sativa), β-D-glucosidase (Almond), α-D-mannosidase (Jack bean), α-D-galactosidase (Green coffee beans), β-D-galactosidase (Bovine liver), α-L-fucosidase (Bovine kidney), N-acetyl-β-D-glucosaminidase (Bovine kidney, Jack bean, Aspergillus oryzae), Naringinase (Penicillium decumbens) and amyloglucosidase (Aspergillus niger). All enzymes were used with the appropriate p-nitrophenyl substrates (5 mM). Amyloglucosidase activity was measured using amylopectin (0.1%) (Merck) mixed with sodium phosphate buffer, pH 4.5 in a glass bottle, and healed in a boiling water bath for 20 minutes to dissolve with released glucose measured using ‘Trinder’ glucose detection solution (Sigma).
(§2) All enzymes and para-nitrophenyl substrates were purchased from Sigma, with the exception of beta-mannosidase which came from Megazyme. Enzymes were assayed at 27° C. in 0.1M citric acid/0.2M disodium hydrogen phosphate buffers at the optimum pH for the enzyme. The incubation mixture consisted of 10 μl enzyme solution, 10 μl of 1 mg/ml aqueous solution of extract and 50 μl of the appropriate 5 mM para-nitrophenyl substrate made up in buffer at the optimum pH for the enzyme. The reactions were stopped by addition of 70 μl 0.4M glycine (pH 10.4) during the exponential phase of the reaction, which had been determined at the beginning using uninhibited assays in which water replaced inhibitor. Final absorbances were read at 405 nm using a Versamax microplate reader (Molecular Devices). Assays were carried out in triplicate, and the values given are means of the three replicates per assay. (See Watson, A. A., Nash, R. J., Wormald, M. R., Harvey, D. J., Dealler, S., Lees, E., Asano, N., Kizu, H., Kato, A., Griffiths, R. C., Cairns, A. J. and Fleet, G. W. J. (1997). Glycosidase-inhibiting pyrrolidine alkaloids from Hyacinthoides non-scripta. Phytochemistry 46 (2): 255-259.)

α-D-glucosidase (Rice) = target: T2, α-D-glucosidase (Rice) (Oryza sativa subsp. japonica, UniProt Q653V7); assay: Glycosidase inhibition: α-D-glucosidase (Rice); conditions: for inhibition at 800 µM: compounds tested at 0.8 mM
T2 construct: purchased Sigma

[1] = target: T3, α-D-galactosidase Green coffee bean (Coffea arabica, UniProt Q42656); assay: Glycosidase inhibition: α-D-galactosidase Green coffee bean; conditions: compounds tested at 0.8 mM
T3 construct: α-D-galactosidase (Green coffee beans); purchased Sigma; host or cells: green coffee beans
Description: as §1, §2

[2] = target: T4, α-D-mannosidase Jack bean (Canavalia ensiformis, UniProt C0HJB3); assay: Glycosidase inhibition: α-D-mannosidase Jack bean; conditions: compounds tested at 0.8 mM
T4 construct: α-D-mannosidase (Jack bean); purchased Sigma
T4 sequence (C0HJB3 1-981): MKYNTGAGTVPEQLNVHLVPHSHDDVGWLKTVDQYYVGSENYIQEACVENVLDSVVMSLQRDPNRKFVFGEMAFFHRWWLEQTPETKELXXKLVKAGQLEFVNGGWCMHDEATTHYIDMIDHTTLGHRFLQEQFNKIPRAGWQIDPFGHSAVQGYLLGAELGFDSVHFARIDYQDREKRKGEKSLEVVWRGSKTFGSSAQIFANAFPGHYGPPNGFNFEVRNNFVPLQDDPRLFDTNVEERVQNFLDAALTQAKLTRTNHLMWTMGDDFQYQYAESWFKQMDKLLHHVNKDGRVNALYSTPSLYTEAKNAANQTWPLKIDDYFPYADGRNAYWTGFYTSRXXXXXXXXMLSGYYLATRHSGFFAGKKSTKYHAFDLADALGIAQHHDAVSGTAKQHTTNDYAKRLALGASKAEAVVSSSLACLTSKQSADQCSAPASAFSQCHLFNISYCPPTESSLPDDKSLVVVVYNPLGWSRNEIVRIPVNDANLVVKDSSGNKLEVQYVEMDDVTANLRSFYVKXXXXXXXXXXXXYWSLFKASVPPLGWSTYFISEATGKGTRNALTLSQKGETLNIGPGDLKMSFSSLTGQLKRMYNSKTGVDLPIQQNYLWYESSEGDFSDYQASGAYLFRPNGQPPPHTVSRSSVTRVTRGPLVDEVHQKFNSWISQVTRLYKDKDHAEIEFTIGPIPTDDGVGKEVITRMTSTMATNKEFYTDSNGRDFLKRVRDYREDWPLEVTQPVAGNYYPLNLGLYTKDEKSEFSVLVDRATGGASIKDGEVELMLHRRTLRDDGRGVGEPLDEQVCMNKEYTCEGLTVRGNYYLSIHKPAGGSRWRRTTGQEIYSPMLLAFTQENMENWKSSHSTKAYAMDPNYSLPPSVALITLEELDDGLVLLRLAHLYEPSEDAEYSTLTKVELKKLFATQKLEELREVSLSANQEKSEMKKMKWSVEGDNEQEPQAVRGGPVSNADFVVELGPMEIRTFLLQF

[3] = target: T5, N-acetyl-β-D-glucosaminidase (A. oryzae) (Aspergillus oryzae, UniProt Q8J2T0); assay: Glycosidase inhibition: N-acetyl-β-D-glucosaminidase (A. oryzae); conditions: compounds tested at 0.8 mM
T5 construct: purchased Sigma
Description: as §1, §2

[4] = target: T6, Amyloglucosidase Aspergillus niger (Aspergillus niger, UniProt P69328); assay: Glycosidase inhibition: Amyloglucosidase Aspergillus niger; conditions: compounds tested at 0.8 mM
T6 construct: purchased Sigma
Description: as §1, §2

[5] = target: T7, rabbit intestinal sucrase (Oryctolagus cuniculus, UniProt P07768); assay: Rabbit disaccharidase inhibition assay: sucrase; conditions: NI: no inhibition at 0.8 mM
T7 construct: The small intestine was dissected out of a female wild rabbit; from tissue; host or cells: small-intestinal mucosa of a female wild rabbit
Protocol: Sucrose (8.3 mM), maltose (5 mM) and isomaltose (6.3 mM) substrates were made using 0.2 M Macllvaine (citrate-phosphate) buffer, pH 6.0. The glucose detection reagent was prepared according to the supplier's instructions (Megazyme Ltd). Linearity of the timecourse of the reaction between the glucose detection reagent and glucose was tested using a series of glucose dilutions.
The method for preparation of mammalian small intestine mucosal disaccharidases was based on Griffiths (1998), omitting ammonium sulphate fractionation steps. The small intestine was dissected out of a female wild rabbit, and opened longitudinally using a scalpel. The mucosal layer was scraped off using the edge of a clean microscope slide, and placed into 3 ml of dH2O. The mucosal layer suspension was centrifuged at around 1000 rpm for 30 seconds to sediment tissue debris. The supernatant ([…]) was removed, and centrifuged again at 3500 rcf for 1 minute to remove fine particulates from suspension. The supernatant was diluted to give 0.2-0.25 mg/ml protein and stored at −30° C.
Enzyme assays were carried out using 5-15 μl of enzyme preparation, 5 μl of test compound (or dH2O for controls) and 15-25 μl of substrate solution. Reactions were covered using a sheet of plate sealing film, and incubated at 37° C. for 60 minutes. Glucose (from disaccharide hydrolysis) was quantified by adding 200 μl of glucose detection reagent and incubating the reactions for a further twenty-five minutes. Absorbance was measured at 510 nm against control blanks.

T3 sequence (Q42656 16-378): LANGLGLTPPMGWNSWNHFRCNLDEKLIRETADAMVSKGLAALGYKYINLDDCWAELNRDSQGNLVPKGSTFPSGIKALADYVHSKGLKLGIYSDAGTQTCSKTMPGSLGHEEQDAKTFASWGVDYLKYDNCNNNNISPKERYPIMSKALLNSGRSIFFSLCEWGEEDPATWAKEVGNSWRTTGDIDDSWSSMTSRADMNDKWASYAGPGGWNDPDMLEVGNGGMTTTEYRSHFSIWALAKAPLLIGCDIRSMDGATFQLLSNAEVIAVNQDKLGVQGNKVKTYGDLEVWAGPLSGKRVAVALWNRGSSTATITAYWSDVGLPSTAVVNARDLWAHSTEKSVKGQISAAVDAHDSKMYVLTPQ
T5 sequence (Q8J2T0 97-600): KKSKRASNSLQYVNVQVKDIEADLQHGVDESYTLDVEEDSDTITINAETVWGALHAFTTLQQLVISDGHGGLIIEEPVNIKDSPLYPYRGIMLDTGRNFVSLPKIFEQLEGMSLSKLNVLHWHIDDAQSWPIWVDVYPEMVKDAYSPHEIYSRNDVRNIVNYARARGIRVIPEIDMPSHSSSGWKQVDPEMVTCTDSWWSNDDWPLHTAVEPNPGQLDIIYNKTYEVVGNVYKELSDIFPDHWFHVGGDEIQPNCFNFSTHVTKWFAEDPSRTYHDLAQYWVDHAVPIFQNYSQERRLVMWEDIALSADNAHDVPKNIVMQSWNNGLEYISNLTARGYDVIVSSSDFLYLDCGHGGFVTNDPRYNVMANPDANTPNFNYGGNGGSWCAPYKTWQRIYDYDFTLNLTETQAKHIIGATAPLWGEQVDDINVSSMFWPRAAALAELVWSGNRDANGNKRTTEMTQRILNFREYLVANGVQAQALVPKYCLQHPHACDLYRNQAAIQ
T6 sequence (P69328 25-640): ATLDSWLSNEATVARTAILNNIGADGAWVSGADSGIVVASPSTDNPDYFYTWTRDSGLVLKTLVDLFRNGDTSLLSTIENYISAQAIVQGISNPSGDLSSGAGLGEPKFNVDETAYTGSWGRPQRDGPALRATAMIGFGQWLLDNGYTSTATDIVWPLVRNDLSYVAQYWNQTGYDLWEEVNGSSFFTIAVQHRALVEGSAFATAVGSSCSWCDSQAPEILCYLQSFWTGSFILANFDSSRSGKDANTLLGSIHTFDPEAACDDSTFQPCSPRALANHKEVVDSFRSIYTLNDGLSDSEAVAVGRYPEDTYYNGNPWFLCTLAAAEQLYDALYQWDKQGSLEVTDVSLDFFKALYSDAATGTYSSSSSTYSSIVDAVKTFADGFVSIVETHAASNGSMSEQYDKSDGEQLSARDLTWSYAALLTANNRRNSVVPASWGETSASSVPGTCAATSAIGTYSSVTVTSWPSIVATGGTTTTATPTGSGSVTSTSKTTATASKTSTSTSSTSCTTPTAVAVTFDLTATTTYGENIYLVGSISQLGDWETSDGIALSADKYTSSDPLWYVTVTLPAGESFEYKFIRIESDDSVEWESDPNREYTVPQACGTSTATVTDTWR
T2 sequence (Q653V7 34-885): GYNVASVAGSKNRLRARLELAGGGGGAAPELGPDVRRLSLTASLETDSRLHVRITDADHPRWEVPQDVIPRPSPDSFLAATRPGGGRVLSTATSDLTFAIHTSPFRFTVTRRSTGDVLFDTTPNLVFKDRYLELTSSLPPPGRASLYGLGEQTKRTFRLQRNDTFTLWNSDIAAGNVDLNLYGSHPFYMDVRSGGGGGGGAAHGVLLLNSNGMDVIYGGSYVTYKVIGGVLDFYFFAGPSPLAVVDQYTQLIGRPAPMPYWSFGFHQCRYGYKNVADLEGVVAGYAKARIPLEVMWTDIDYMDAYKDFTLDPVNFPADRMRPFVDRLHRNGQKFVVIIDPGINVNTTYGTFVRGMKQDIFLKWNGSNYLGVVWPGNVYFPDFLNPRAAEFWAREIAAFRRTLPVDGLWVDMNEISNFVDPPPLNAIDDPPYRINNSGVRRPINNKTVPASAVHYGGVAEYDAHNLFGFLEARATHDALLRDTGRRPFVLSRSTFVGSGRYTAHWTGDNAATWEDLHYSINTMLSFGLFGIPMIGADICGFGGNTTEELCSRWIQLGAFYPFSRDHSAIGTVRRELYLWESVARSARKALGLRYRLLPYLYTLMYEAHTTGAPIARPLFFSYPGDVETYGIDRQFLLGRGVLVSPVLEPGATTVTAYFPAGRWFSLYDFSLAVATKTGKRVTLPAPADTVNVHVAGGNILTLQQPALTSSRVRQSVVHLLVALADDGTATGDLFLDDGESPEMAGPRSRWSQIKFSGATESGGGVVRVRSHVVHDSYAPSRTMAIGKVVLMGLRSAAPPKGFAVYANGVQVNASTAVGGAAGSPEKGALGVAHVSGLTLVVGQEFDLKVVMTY
T7 sequence (P07768 whole entry): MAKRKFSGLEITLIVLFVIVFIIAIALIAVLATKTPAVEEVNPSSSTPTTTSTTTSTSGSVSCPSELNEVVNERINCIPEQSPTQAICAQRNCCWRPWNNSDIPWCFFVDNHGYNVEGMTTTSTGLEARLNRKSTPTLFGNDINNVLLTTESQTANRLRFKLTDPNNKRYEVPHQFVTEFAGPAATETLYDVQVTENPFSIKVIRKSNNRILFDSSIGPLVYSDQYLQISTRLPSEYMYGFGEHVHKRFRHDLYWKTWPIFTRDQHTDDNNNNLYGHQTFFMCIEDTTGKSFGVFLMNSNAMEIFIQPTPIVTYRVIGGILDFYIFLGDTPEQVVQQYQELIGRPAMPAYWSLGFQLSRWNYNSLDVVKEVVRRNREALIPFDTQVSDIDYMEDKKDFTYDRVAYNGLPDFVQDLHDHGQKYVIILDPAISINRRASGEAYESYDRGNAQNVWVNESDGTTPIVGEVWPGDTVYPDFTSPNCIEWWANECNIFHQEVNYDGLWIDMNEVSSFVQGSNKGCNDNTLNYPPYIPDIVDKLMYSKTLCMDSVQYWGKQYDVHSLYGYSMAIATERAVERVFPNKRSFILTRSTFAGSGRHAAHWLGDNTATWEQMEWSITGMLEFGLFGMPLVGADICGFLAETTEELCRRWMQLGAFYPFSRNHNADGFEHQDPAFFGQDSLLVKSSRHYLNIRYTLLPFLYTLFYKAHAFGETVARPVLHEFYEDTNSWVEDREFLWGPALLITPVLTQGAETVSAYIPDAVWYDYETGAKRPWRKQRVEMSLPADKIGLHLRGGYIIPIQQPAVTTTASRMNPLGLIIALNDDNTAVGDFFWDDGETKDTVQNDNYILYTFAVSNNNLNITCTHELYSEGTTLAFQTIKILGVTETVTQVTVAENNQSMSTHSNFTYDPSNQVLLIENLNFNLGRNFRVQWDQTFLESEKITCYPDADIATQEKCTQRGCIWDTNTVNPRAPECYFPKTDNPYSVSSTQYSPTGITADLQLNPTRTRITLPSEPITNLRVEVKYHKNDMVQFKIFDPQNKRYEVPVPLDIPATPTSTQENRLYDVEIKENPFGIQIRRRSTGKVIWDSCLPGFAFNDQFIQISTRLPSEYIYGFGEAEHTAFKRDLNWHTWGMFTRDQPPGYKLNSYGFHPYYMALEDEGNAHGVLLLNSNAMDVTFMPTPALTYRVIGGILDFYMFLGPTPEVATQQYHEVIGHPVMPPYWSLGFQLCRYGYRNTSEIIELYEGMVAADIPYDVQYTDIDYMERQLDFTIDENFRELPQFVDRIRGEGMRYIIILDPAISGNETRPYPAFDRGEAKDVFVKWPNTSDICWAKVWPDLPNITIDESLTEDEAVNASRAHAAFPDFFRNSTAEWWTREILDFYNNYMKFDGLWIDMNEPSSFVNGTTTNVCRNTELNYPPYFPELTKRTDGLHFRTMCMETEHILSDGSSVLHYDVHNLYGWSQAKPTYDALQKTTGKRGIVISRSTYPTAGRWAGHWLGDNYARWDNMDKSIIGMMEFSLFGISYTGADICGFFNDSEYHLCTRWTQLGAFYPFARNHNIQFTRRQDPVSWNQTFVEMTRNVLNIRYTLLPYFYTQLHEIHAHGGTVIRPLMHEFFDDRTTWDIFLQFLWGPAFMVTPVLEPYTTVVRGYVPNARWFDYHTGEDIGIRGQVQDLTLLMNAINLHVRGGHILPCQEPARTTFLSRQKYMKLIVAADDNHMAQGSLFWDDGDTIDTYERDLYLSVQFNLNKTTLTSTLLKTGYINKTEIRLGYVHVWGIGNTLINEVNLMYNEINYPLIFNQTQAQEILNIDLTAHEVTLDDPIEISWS
T1 sequence (P53341 whole entry): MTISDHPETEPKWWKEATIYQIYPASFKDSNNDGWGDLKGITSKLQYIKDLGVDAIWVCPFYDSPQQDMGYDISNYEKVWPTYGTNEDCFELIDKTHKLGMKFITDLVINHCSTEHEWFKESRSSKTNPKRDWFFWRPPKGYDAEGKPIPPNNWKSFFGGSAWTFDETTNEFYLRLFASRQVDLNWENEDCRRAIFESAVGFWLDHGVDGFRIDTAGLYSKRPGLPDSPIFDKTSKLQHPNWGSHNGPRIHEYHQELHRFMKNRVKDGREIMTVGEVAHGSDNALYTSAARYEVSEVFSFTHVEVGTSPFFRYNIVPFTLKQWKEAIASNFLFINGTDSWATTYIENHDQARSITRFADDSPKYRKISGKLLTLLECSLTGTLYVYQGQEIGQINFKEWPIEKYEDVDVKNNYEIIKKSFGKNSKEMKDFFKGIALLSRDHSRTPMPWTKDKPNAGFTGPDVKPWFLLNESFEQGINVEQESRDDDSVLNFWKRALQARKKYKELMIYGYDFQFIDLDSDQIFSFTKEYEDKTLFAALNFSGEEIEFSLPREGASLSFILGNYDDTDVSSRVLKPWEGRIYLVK

Structure (SMILES)	inhibition at 800 µM (α-D-glucosidase (Yeast))	inhibition at 800 µM (α-D-glucosidase (Rice))	inhibition at 800 µM [1]	inhibition at 800 µM [2]	inhibition at 800 µM [3]	inhibition at 800 µM [4]	IC50 [5]	IC50 (α-D-glucosidase (Rice); read-out: IC50, α-D-glucosidase (Rice))	sucrase IC50 (uM) [5]	IC50 (α-D-glucosidase (Rice))	% inhibition, α-D-mannosidase Jack bean [2]
O=C(O)[C@H]1NC[C@H](O)[C@@H](O)[C@@H]1O [Compound G2, 2S,3R,4R,5S-trihydroxypiperidine-2-carboxylic acid]	< 10%	55%	< 10%	29%	< 10%	< 10%	> 800 µM	–	–	–	–
O=C(O)CN1[C@H](CO)[C@@H](O)[C@H](O)[C@H]1CO [Compound S2, 2-((2R,3R,4R,5R)-3,4-Dihydroxy-2,5-bis(hydroxymethyl)pyrrolidin-1-yl)acetic acid]	< 50%	< 50%	< 50%	< 50%	< 50%	< 50%	> 800 µM	–	–	–	–
O=C(O)CCN1C[C@H](O)[C@@H](O)[C@H](O)[C@H]1CO [Compound T1]	< 50%	99.1%	< 50%	< 50%	< 50%	53%	6.1 µM	2.4 µM	very weak inhibition	–	–
CCCCOC(=O)[C@@H]1[C@@H](O)[C@H](O)[C@@H](O)CN1CCCC [Compound T2, (2S,3R,4R,5S)-Butyl 1-butyl-3,4,5-trihydroxypiperidine-2-carboxylate]	< 50%	< 50%	< 50%	< 50%	< 50%	< 50%	> 800 µM	–	–	–	–
OC[C@H]1NC[C@H](O)[C@@H](O)[C@@H]1O [DNJ, 1-deoxynojirimycin, reference compound]	36%	–	< 10%	26%	< 10%	32%	0.09 µM	–	–	0.9 µM	27%
